The target in assay [1] is human cathepsin K (UniProt P43236, Y175D/V274L, species not given). As to the kind of experiment: Cathepsin K Assay. Format: biochemical. Conditions: IP from dose response curve; Z-Leu-Arg-AMC substrate, pH 5.5; read-out: hrbCat K (IP (nM)).
In assay [2] the target is T1, human cathepsin F (Homo sapiens, UniProt Q9UBX1).
T1 sequence (Q9UBX1 271-484): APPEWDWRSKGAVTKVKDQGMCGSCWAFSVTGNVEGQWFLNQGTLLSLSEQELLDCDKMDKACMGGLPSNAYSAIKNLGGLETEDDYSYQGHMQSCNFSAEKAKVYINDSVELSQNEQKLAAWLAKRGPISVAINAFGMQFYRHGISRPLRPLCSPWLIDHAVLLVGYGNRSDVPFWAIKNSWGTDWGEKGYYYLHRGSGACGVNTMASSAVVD
In words: Cathepsin F Assay. Format: biochemical. Conditions: IP from dose response curve; Z-Phe-Arg-AMC substrate, pH 5.5; read-out: hCat F (IP (nM)). How it is done:
Serial dilutions (1/3) from 500 μM down to 0.025 μM of test compounds were prepared in dimethyl sulfoxide (DMSO). Then 0.5 μL of DMSO from each dilution were added to 18.75 μL of assay buffer (MES, 50 mM (pH 5.5); EDTA, 2.5 mM; DTT, 2.5 mM and 10% DMSO) containing human cathepsin F (10 nM) in assay buffer solution. The assay solutions were mixed for 5-10 seconds on a shaker plate and incubated for 15 minutes at room temperature. Z-Phe-Arg-AMC (8 μM) in 6.25 μL of assay buffer was added to the assay solutions. Hydrolysis of the coumarin leaving group (AMC) was followed by spectrofluorometry (Exλ=360 nm; Emλ=460 nm) for 20 minutes. Percent of inhibition were calculated by fitting experimental values to standard mathematical model for dose response curve.

Molecules are shown by their SMILES.

With `N#CC1(NC(=O)[C@@H]2CCCC[C@H]2c2nn3ccccc3c2-c2ccc(N3CCS(=O)(=O)CC3)cc2)CC1` [Example 21, (1R,2R)-N-(1-cyanocyclopropyl)-2-(3-(4-(1,1-dioxidothiomorpholino)phen-yl)pyrazolo[1,5-a]pyridin-2-yl)cyclohexanecarboxamide], the IC50 in assay [1] came to 9.56 nM; in assay [2], 6910 nM.

In the case of `Cc1c(-c2ccc(N3CCS(=O)(=O)CC3)cc2)c([C@@H]2CCC(F)(F)C[C@H]2C(=O)NC2(C#N)CC2)nn1-c1ccc(F)cc1` [Example 26, (1R,2R)-N-(1-cyanocyclopropyl)-2-(4-(4-(1,1-dioxidothiomorpholino)phen-yl)-1-(4-fluorophenyl)-5-methyl-1H-pyrazol-3-yl)-5,5-difluorocyclohexanecarbox-amide], the IC50 is 0.67 nM in assay [1] and 168 nM in assay [2].

Consider `Cc1c(-c2ccc(N3CCS(=O)(=O)CC3)cc2)c([C@@H]2CCC(F)(F)C[C@H]2C(=O)NC2(C#N)CC2)nn1-c1ccc(F)cn1` [Example 27, (1R,2R)-N-(1-cyanocyclopropyl)-2-(4-(4-(1,1-dioxidothiomorpholino)phen-yl)-1-(5-fluoropyridin-2-yl)-5-methyl-1H-pyrazol-3-yl)-5,5-difluorocyclohexanecarbox-amide], for which the IC50 in assay [1] is 1.28 nM; in assay [2], 170 nM.

In the case of `N#CC1(NC(=O)[C@@H]2CC(F)(F)CC[C@H]2c2nn3ccccc3c2-c2ccc(N3CCS(=O)(=O)CC3)cc2)CC1` [Example 28, (1R,2R)-N-(1-cyanocyclopropyl)-2-(3-(4-(1,1-dioxidothiomorpholino)phen-yl)pyrazolo[1,5-a]pyridin-2-yl)-5,5-difluorocyclohexanecarbox-amide], the figures for the IC50 in assay [1] and in assay [2] were 1.94 nM and 363 nM, respectively.

On to `N#CC1(NC(=O)[C@@H]2C[C@@H](F)CC[C@H]2c2nn(-c3ncccc3F)cc2-c2ccc(N3CCS(=O)(=O)CC3)cc2)CC1` [Example 29, (1R,2R,5S)-N-(1-cyanocyclopropyl)-2-(4-(4-(1,1-dioxidothiomorpholino)phen-yl)-1-(3-fluoropyridin-2-yl)-1H-pyrazol-3-yl)-5-fluorocyclohexanecarboxamide], for which the IC50 came out at 6.2 nM in assay [1] and 6780 nM in assay [2].

On to `N#CC1(NC(=O)[C@@H]2CCCC[C@H]2c2nn(-c3ccc(F)cn3)c(CO)c2-c2ccc(N3CCS(=O)(=O)CC3)cc2)CC1` [Example 30, (1R,2R)-N-(1-cyanocyclopropyl)-2-(4-(4-(1,1-dioxidothiomorpholino)phen-yl)-1-(5-fluoropyridin-2-yl)-5-(hydroxymethyl)-1H-pyrazol-3-yl)cyclohexanecarboxamide], for which the IC50 in assay [1] stood at 11 nM; in assay [2], 5870 nM.

In the case of `Cc1c(-c2ccc(N3CCS(=O)(=O)CC3)cc2)c([C@@H]2CCC(F)(F)C[C@H]2C(=O)N[C@H](C#N)C(C)C)nn1-c1ccc(F)cn1` [Example 31, (1R,2R)-N-((S)-1-cyano-2-methylpropyl)-2-(4-(4-(1,1-dioxidothiomorpholino)phen-yl)-1-(5-fluoropyridin-2-yl)-5-methyl-1H-pyrazol-3-yl)-5,5-difluorocyclohexanecarbox-amide], the IC50 in assay [1] is 1.63 nM; in assay [2], 115 nM.

In the case of `CC(C)[C@@H](C#N)NC(=O)[C@@H]1CCC(F)(F)C[C@H]1c1nn(-c2ncccc2F)cc1-c1ccc(N2CCS(=O)(=O)CC2)cc1` [Example 32, (1R,2R)-N-((S)-1-cyano-2-methylpropyl)-2-(4-(4-(1,1-dioxidothiomorpholino)phen-yl)-1-(3-fluoropyridin-2-yl)-1H-pyrazol-3-yl)-4,4-difluorocyclohexanecarbox-amide], the figures for the IC50 in assay [1] and in assay [2] were 7.11 nM and 2780 nM, respectively.

As to `N#CC1(NC(=O)[C@@H]2CCC(F)(F)C[C@H]2c2nn(-c3ncccc3F)cc2-c2ccc(N3CCS(=O)(=O)CC3)cc2)CC1` [Example 33, (1R,2R)-N-(1-cyanocyclopropyl)-2-(4-(4-(1,1-dioxidothiomorpholino)phen-yl)-1-(3-fluoropyridin-2-yl)-1H-pyrazol-3-yl)-4,4-difluorocyclohexanecarbox-amide], the IC50 was 13.6 nM in assay [1] and 9540 nM in assay [2].

For the origin of these results see patent US9656990B2, “Cathepsin cysteine protease inhibitors” (Merck Sharp & Dohme Corp., priority 2014, dated 2017).
